We go through 9 compounds from patent publication US20200016136A1 (VIIV HEALTHCARE UK (NO. 5) LIMITED, priority 2017, published 2020).

The term EC50 denotes the concentration that produces a half-maximal response.

The structures appear in SMILES notation.

In the test the test system is NL-RLuc virus (recombinant NL4-3 HIV with Renilla Luciferase gene). Nature of the test: Inhibition of HIV replication (NL-RLuc virus in MT-2 cells, luciferase readout). The class given is cell-based, Human immunodeficiency virus (HIV). The following applies: MT2, 120 h. An excerpt: Inhibition of HIV Replication:
A recombinant NL-RLuc proviral clone was constructed in which a section of the nef gene form NL4-3 was replaced with the Renilla Luciferase gene. This virus is fully infectious and can undergo multiple cycles of replication in cell culture. In addition, the luciferous reporter provides a simple and easy method for quantitating the extent of virus growth and consequently, the antiviral activity of test compounds. The plasmid pNLRLuc contains the proviral NL-Rluc DNA cloned into pUC18 at the PvuII site. The NL-RLuc virus was prepared by transfection of 293T cells with the plasmid pNLRLuc. Transfections were performed using the LipofectAMINE PLUS kit form Invitrogen (Carlsbad, Calif.) according to the manufacturer and the virus generated was titered in MT-2 cells. For susceptibility analyses, the titrated virus was used to infect MT-2 cells in the presence of compound, and after 5 days of incubation, cells were processed and quantitated for virus growth by the amount of expressed luciferase. Assay media was RPMI 1640 supplemented with 10% heat inactivated fetal bovine serum (FBS), 100 units/ml penicillin G/100 units/ml streptomycin, 10 mM HEPES buffer pH 7.55 and 2 mM L-glutamine. The results form at least 2 experiments were used to calculate the EC50 values. Luciferase was quantitated using the Dual Luciferase kit form Promega (Madison, Wis.). Susceptibility of viruses to compounds was determined by incubation in the presence of serial dilutions of the compound. The 50% effective concentration (EC50) was calculated by using the exponential form of the median effect equation where (Fa)=1/[1+(ED50/drug conc.)^m](Johnson V A, Byington R T. Infectivity Assay. In Techniques in HIV Research. ed. Aldovini A, Walker B D. 71-76. New York: Stockton Press. 1990).
Consider `Cc1cccc(Cl)c1CN1CCc2cc(-c3c(NCCCN(C)C)nc(C)c([C@H](OC(C)(C)C)C(=O)O)c3N3CCC(C)(C)CC3)ccc2C1` [Example 9, (S)-2-(tert-Butoxy)-2-(5-(2-(2-chloro-6-methylbenzyl)-1,2,3,4-tetrahydroisoquinolin-6-yl)-6-((3-(dimethylamino)propyl)amino)-4-(4,4-dimethylpiperidin-1-yl)-2-methylpyridin-3-yl)acetic Acid], for which the EC50 amounted to 2 nM.
Regarding `Cc1cccc(Cl)c1CN1CCc2cc(-c3c(NCCCN4CCCCC4)nc(C)c([C@H](OC(C)(C)C)C(=O)O)c3N3CCC(C)(C)CC3)ccc2C1` [Example 10, (S)-2-(tert-Butoxy)-2-(5-(2-(2-chloro-6-methylbenzyl)-1,2,3,4-tetrahydroisoquinolin-6-yl)-4-(4,4-dimethylpiperidin-1-yl)-2-methyl-6-((3-(piperidin-1-yl)propyl)amino)pyridin-3-yl)acetic Acid], the concentration giving a half-maximal response (EC50) came to 2 nM.
As for `Cc1cccc(Cl)c1CN1CCc2cc(-c3c(NCCCN4CCN(C)CC4)nc(C)c([C@H](OC(C)(C)C)C(=O)O)c3N3CCC(C)(C)CC3)ccc2C1` [Example 11], the EC50 is 2 nM.
For `Cc1nc(NC2CCN(C)CC2)c(-c2ccc3c(c2)CCN(c2ncnc4c2oc2ccccc24)C3)c(N2CCC(C)(C)CC2)c1[C@H](OC(C)(C)C)C(=O)O` [Example 12, (S)-2-(5-(2-(Benzofuro[3,2-d]pyrimidin-4-yl)-1,2,3,4-tetrahydroisoquinolin-6-yl)-4-(4,4-dimethylpiperidin-1-yl)-2-methyl-6-((1-methylpiperidin-4-yl)amino)pyridin-3-yl)-2-(tert-butoxy)acetic Acid] the value was 1 nM.
Turning to `Cc1nc(-c2cnn(C)c2C)c(-c2ccc3c(c2)CCN(c2ncnc4c2oc2ccccc24)C3)c(N2CCC(C)(C)CC2)c1[C@H](OC(C)(C)C)C(=O)O` [Example 13, (S)-2-(5-(2-(Benzofuro[3,2-d]pyrimidin-4-yl)-1,2,3,4-tetrahydroisoquinolin-6-yl)-6-(1,5-dimethyl-1H-pyrazol-4-yl)-4-(4,4-dimethylpiperidin-1-yl)-2-methylpyridin-3-yl)-2-(tert-butoxy)acetic Acid], the EC50 is 2 nM.
On to `Cc1nc(NCCCN2CCCCC2)c(-c2ccc3c(c2)CCN(c2ncnc4c2oc2ccccc24)C3)c(N2CCC(C)(C)CC2)c1[C@H](OC(C)(C)C)C(=O)O` [Example 15, (S)-2-(5-(2-(Benzofuro[3,2-d]pyrimidin-4-yl)-1,2,3,4-tetrahydroisoquinolin-6-yl)-4-(4,4-dimethylpiperidin-1-yl)-2-methyl-6-((3-(piperidin-1-yl)propyl)amino)pyridin-3-yl)-2-(tert-butoxy)acetic Acid], for which the EC50 was 2 nM.
On to `Cc1nc(NCCCN2CCN(C)CC2)c(-c2ccc3c(c2)CCN(c2ncnc4c2oc2ccccc24)C3)c(N2CCC(C)(C)CC2)c1[C@H](OC(C)(C)C)C(=O)O` [Example 16, (S)-2-(5-(2-(Benzofuro[3,2-d]pyrimidin-4-yl)-1,2,3,4-tetrahydroisoquinolin-6-yl)-4-(4,4-dimethylpiperidin-1-yl)-2-methyl-6-((3-(4-methylpiperazin-1-yl)propyl)amino)pyridin-3-yl)-2-(tert-butoxy)acetic Acid], for which the EC50 was found to be 2 nM.
With `Cc1nc(C)c([C@H](OC(C)(C)C)C(=O)O)c(N2CCC(C)(C)CC2)c1-c1ccc2c(c1)CCN(c1nccc(N(C)C)n1)C2` [Example 17, (2S)-2-(tert-Butoxy)-2-(5-{2-[4-(dimethylamino)pyrimidin-2-yl]-1,2,3,4-tetrahydroisoquinolin-6-yl}-4-(4,4-dimethylpiperidin-1-yl)-2,6-dimethylpyridin-3-yl)acetic Acid] the figure was 1 nM; with `Cc1nc(C)c([C@H](OC(C)(C)C)C(=O)O)c(N2CCC(C)(C)CC2)c1-c1ccc2c(c1)CCN(c1ccnc(N3CCC3)n1)C2` [Example 18, (2S)-2-(5-{2-[2-(Azetidin-1-yl)pyrimidin-4-yl]-1,2,3,4-tetrahydroisoquinolin-6-yl}-4-(4,4-dimethylpiperidin-1-yl)-2,6-dimethylpyridin-3-yl)-2-(tert-butoxy)acetic Acid], 1 nM.
